Source: patent publication US20240018125A1, “CYCLIC ISOTHIOUREA DERIVATIVES AS CXCR4 MODULATORS” (ERMIUM THERAPEUTICS, priority 2020, published 2024)
Where a name gives a salt, the structure may show the parent alone.

System: peripheral blood mononuclear cells (PBMCs) from healthy donors
Assay: IFN production by R848-activated PBMCs, quantified with twINNE luciferase reporter cell line
Type: cell-based, human
Settings: Homo sapiens, PBMC; read-out: IC50 of anti-inflammatory activity (IFN production by activated PBMCs)
How it was run: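 Functional IFN was quantified by luciferase output from the twINNE ISRE-reporter line after 24 h on conditioned supernatants. Those supernatants came from human PBMCs (4.10^6/mL) pre-treated with compound and then stimulated for 24 h with 5 μg/mL resiquimod. IC50s were fitted by nonlinear variable-slope regression.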

Structure (SMILES)	IC50 [µM]
IC1=C(CSC2=NCc3ccccc3N2)N2CC(Cc3ccccc3)N=C2S1 (stereo not shown) [Example 110, 6-benzyl-3-(((1,4-dihydroquinazolin-2-yl)thio)methyl)-2-iodo-5,6-dihydroimidazo[2,1-b]thiazole dihydrochloride]	≤ 10
Clc1cccc(C[C@H]2CN3C(CSC4=NCc5ccccc5N4)=CSC3=N2)c1 [Example 111, (S)-6-(3-chlorobenzyl)-3-(((1,4-dihydroquinazolin-2-yl)thio)methyl)-5,6-dihydroimidazo[2,1-b]thiazole dihydrochloride]	≤ 10
Cc1cccc(CC2CN3C(CSC4=NCc5ccccc5N4)=CSC3=N2)c1 (stereo not shown) [Example 112, 3-(((1,4-dihydroquinazolin-2-yl)thio)methyl)-6-(3-methylbenzyl)-5,6-dihydroimidazo[2,1-b]thiazole dihydrochloride]	≤ 10
CC1N=C(SCC2=CSC3=NC(Cc4ccccc4)CN23)Nc2ccccc21 (stereo not shown) [Example 113, 6-benzyl-3-(((4-methyl-1,4-dihydroquinazolin-2-yl)thio)methyl)-5,6-dihydroimidazo[2,1-b]thiazole dihydrochloride]	≤ 10
Clc1ccc2c(c1)CN=C(SCC1=CSC3=NC(Cc4ccccc4)CN13)N2 (stereo not shown) [Example 114, 6-benzyl-3-(((6-chloro-1,4-dihydroquinazolin-2-yl)thio)methyl)-5,6-dihydroimidazo[2,1-b]thiazole dihydrochloride]	≤ 10
Clc1nccc2sc(CSC3=NCc4ccccc4N3)cc12 [Example 116, 4-chloro-2-(((1,4-dihydroquinazolin-2-yl)thio)methyl)thieno[3,2-c]pyridine dihydrochloride]	≤ 10
Fc1cccc2c1CN=C(SCC1=CSC3=NC(Cc4ccccc4)CN13)N2 (stereo not shown) [Example 117, 6-benzyl-3-(((5-fluoro-1,4-dihydroquinazolin-2-yl)thio)methyl)-5,6-dihydroimidazo[2,1-b]thiazole dihydrochloride]	≤ 10
Clc1cccc2c1CN=C(SCC1=CSC3=NC(Cc4ccccc4)CN13)N2 (stereo not shown) [Example 118, 6-benzyl-3-(((5-chloro-1,4-dihydroquinazolin-2-yl)thio)methyl)-5,6-dihydroimidazo[2,1-b]thiazole dihydrochloride]	≤ 10
Brc1ccc2c(c1)NC(SCC1=CSC3=NC(Cc4ccccc4)CN13)=NC2 (stereo not shown) [Example 119, 6-benzyl-3-(((7-bromo-1,4-dihydroquinazolin-2-yl)thio)methyl)-5,6-dihydroimidazo[2,1-b]thiazole dihydrochloride]	≤ 10
C1=C(CSC2=NCc3ccccc3N2)N2CC(c3ccccc3)N=C2S1 (stereo not shown) [Example 120, 3-(((1,4-dihydroquinazolin-2-yl)thio)methyl)-6-phenyl-5,6-dihydroimidazo[2,1-b]thiazole dihydrochloride]	≤ 10
Fc1cccc(CC2CN3C(CSC4=NCc5ccccc5N4)=CSC3=N2)c1 (stereo not shown) [Example 121, 3-(((1,4-dihydroquinazolin-2-yl)thio)methyl)-6-(3-fluorobenzyl)-5,6-dihydroimidazo[2,1-b]thiazole dihydrochloride]	≤ 10
Cc1ccc(CC2CN3C(CSC4=NCc5ccccc5N4)=CSC3=N2)cc1 (stereo not shown) [Example 122, 3-(((1,4-dihydroquinazolin-2-yl)thio)methyl)-6-(4-methylbenzyl)-5,6-dihydroimidazo[2,1-b]thiazole dihydrochloride]	≤ 10
Clc1ccccc1CC1CN2C(CSC3=NCc4ccccc4N3)=CSC2=N1 (stereo not shown) [Example 123, 6-(2-chlorobenzyl)-3-(((1,4-dihydroquinazolin-2-yl)thio)methyl)-5,6-dihydroimidazo[2,1-b]thiazole dihydrochloride]	≤ 10
COc1ccc(C[C@@H]2CN3C(CSC4=NCc5ccccc5N4)=CSC3=N2)cc1 [Example 124, (R)-3-(((1,4-dihydroquinazolin-2-yl)thio)methyl)-6-(4-methoxybenzyl)-5,6-dihydroimidazo[2,1-b]thiazole dihydrochloride]	≤ 10
FC1(F)CCN(CCSC2=NCc3ccccc3N2)C1 [Example 125, 2-((2-(3,3-difluoropyrrolidin-1-yl)ethyl)thio)-1,4-dihydroquinazoline dihydrochloride]	10 to 32
C1=C(CSC2=NCc3ccccc3N2)N2CC(CCc3ccccc3)N=C2S1 (stereo not shown) [Example 126, 3-(((1,4-dihydroquinazolin-2-yl)thio)methyl)-6-phenethyl-5,6-dihydroimidazo[2,1-b]thiazole dihydrochloride]	≤ 10
COC1CCN(CCSC2=NCc3ccccc3N2)C1 (stereo not shown) [Example 127, 2-((2-(3-methoxypyrrolidin-1-yl)ethyl)thio)-1,4-dihydroquinazoline dihydrochloride]	≤ 10
c1ccc(C2CCCN2CCSC2=NCc3ccccc3N2)cc1 (stereo not shown) [Example 128, 2-((2-(2-phenylpyrrolidin-1-yl)ethyl)thio)-1,4-dihydroquinazoline dihydrochloride]	≤ 10
CC(CSC1=NCc2ccccc2N1)N1CCCC1 (stereo not shown) [Example 129, 2-((2-(pyrrolidin-1-yl)propyl)thio)-1,4-dihydroquinazoline dihydrochloride]	≤ 10
CC1CCCN1CCSC1=NCc2ccccc2N1 (stereo not shown) [Example 130, 2-((2-(2-methylpyrrolidin-1-yl)ethyl)thio)-1,4-dihydroquinazoline dihydrochloride]	≤ 10

Structure (SMILES)	IC50 [µM]
CC1(c2ccccc2)CN=C(SCCN2CCCC2)N1 (stereo not shown) [Example 131, 5-methyl-5-phenyl-2-((2-(pyrrolidin-1-yl)ethyl)thio)-4,5-dihydro-1H-imidazole dihydrochloride]	10 to 32
FC1(F)CC12CCN(CCSC1=NCc3ccccc3N1)C2 (stereo not shown) [Example 132, 2-((2-(1,1-difluoro-5-azaspiro[2.4]heptan-5-yl)ethyl)thio)-3,4-dihydroquinazoline]	10 to 32
c1ccc2c(c1)CN=C(SCCN1[C@@H]3CCC[C@H]1CC3)N2 [Example 133, 2-((2-((1R,5S)-8-azabicyclo[3.2.1]octan-8-yl)ethyl)thio)-3,4-dihydroquinazoline dihydrochloride]	≤ 10
Ic1cc2c(c(I)c1I)NC(SCCN1CCCC1)=NC2 [Example 134, 6,7,8-triiodo-2-((2-(pyrrolidin-1-yl)ethyl)thio)-1,4-dihydroquinazoline dihydrochloride]	≤ 10
O=C1CCCN1CCSC1=NCc2ccccc2N1 [Example 135, 1-(2-((1,4-dihydroquinazolin-2-yl)thio)ethyl)pyrrolidin-2-one hydrochloride]	> 32
c1ccc2c(c1)CN=C(SCCCCN1CCCC1)N2 [Example 137, 2-((4-(pyrrolidin-1-yl)butyl)thio)-1,4-dihydroquinazoline dihydrochloride]	10 to 32
CC1CCN(CCSC2=NCc3ccccc3N2)C1 (stereo not shown) [Example 138, 2-((2-(3-methylpyrrolidin-1-yl)ethyl)thio)-1,4-dihydroquinazoline dihydrochloride]	≤ 10
c1ccc(C2CCN(CCSC3=NCc4ccccc4N3)C2)cc1 (stereo not shown) [Example 140, 2-((2-(3-phenylpyrrolidin-1-yl)ethyl)thio)-1,4-dihydroquinazoline dihydrochloride]	≤ 10
c1ccc2c(c1)CN=C(SC1CCC[C@H]1N1CCCC1)N2 (stereo partly drawn) [Example 141, 2-(((2R)-2-(pyrrolidin-1-yl)cyclopentyl)thio)-1,4-dihydroquinazoline dihydrochloride]	10 to 32
c1ccc2c(c1)CN=C(SCCN1CCC3(CCCC3)C1)N2 [Example 142, 2-((2-(2-azaspiro[4.4]nonan-2-yl)ethyl)thio)-1,4-dihydroquinazoline dihydrochloride]	≤ 10
c1ccc(COC2CCN(CCSC3=NCc4ccccc4N3)C2)cc1 (stereo not shown) [Example 143, 2-((2-(3-(benzyloxy)pyrrolidin-1-yl)ethyl)thio)-1,4-dihydroquinazoline dihydrochloride]	≤ 10
O=C(O)C1CCN(CCSC2=NCc3ccccc3N2)C1 (stereo not shown) [Example 144, 1-(2-((1,4-dihydroquinazolin-2-yl)thio)ethyl)pyrrolidine-3-carboxylic acid dihydrochloride]	> 32
CN1CCC(CCSC2=NCc3ccccc3N2)C1 (stereo not shown) [Example 145, 2-((2-(1-methylpyrrolidin-3-yl)ethyl)thio)-1,4-dihydroquinazoline dihydrochloride]	10 to 32
O=C(CCCSC1=NCc2ccccc2N1)N1CCCC1 [Example 147, 4-((1,4-dihydroquinazolin-2-yl)thio)-1-(pyrrolidin-1-yl)butan-1-one hydrochloride]	> 32
c1ccc2c(c1)CN=C(SC1CCCC[C@H]1N1CCCC1)N2 (stereo partly drawn) [Example 148, 2-(((2R)-2-(pyrrolidin-1-yl)cyclohexyl)thio)-1,4-dihydroquinazoline dihydrochloride]	≤ 10
Fc1cccc2c1CN=C(SCCCCN1CCCC1)N2 [Example 149, 5-fluoro-2-((4-(pyrrolidin-1-yl)butyl)thio)-1,4-dihydroquinazoline dihydrochloride]	≤ 10
Clc1ccc2c(c1)NC(SCCCCN1CCCC1)=NC2 [Example 150, 7-chloro-2-((4-(pyrrolidin-1-yl)butyl)thio)-1,4-dihydroquinazoline dihydrochloride]	≤ 10
Fc1ccc2c(c1)NC(SCCCCN1CCCC1)=NC2 [Example 151, 7-fluoro-2-((4-(pyrrolidin-1-yl)butyl)thio)-1,4-dihydroquinazoline dihydrochloride]	≤ 10
Fc1ccc2c(c1)CN=C(SCCCCN1CCCC1)N2 [Example 152, 6-fluoro-2-((4-(pyrrolidin-1-yl)butyl)thio)-1,4-dihydroquinazoline dihydrochloride]	10 to 32
Clc1cccc2c1NC(SCCCCN1CCCC1)=NC2 [Example 153, 8-chloro-2-((4-(pyrrolidin-1-yl)butyl)thio)-1,4-dihydroquinazoline dihydrochloride]	≤ 10
